IC50 data for eleven compounds are collected here from US10005733B2, “N-(4-hydroxy-4-methyl-cyclohexyl)-4-phenyl-benzenesulfonamide and N-(4-hydroxy-4-methyl-cyclohexyl)-4-(2-pyridyl)-benzenesulfonamide compounds and their therapeutic use” (PIMCO 2664 LIMITED, priority 2014, dated 2018).

Each structure is given as a SMILES string.

A word on the IC50: it is the concentration that gives 50% inhibition.

The subject of experiment [1] is IL-6 release from Thp1 macrophages. The experiment is described as follows: Thp1 Macrophage IL-6 Release Assay (LPS-stimulated). Format: cell-based. The following applies: Homo sapiens, THP-1, 18 h, 100 ng/mL LPS. The text has this:
Anti-inflammatory effects were further characterised by assessing the production of interleukin-6 (IL-6) by human Thp-1 derived macrophages stimulated with a pro-inflammatory stimulus bacterial lipopolysaccharide (LPS). LPS acts with a cell-surface receptor, Toll-like receptor-4 to activate the NFκB and IRF signalling pathways to produce IL-6. The reduction of IL-6 in this stimulated assay is indicative of anti-inflammatory effects with utility in the treatment of conditions in which IL-6 production is aberrant. In vitro potency of test compounds in human cells was determined by incubation with Thp1 macrophages and subsequent stimulation with an inflammatory stimulus (bacterial lipopolysaccharide (LPS)) followed by measurement of cellular interleukin-6 (IL-6) release. […] The following day, the cells were stimulated with phorbol myristic acid (PMA) at a final concentration of 200 nM to induce differentiation and maintained for 3 days. Test compounds were prepared as […] solutions in DMSO and then serially diluted in DMSO prior to dilution in culture medium. The diluted compounds were added to the cultures 1 hour prior to stimulation with 100 ng/mL LPS. Compounds were tested in triplicate in a 9 point concentration response curve at concentrations of 30, 10, 3, 1, 0.3, 0.1, 0.03, 0.01 and 0.001 μM Following an 18 hour incubation at 37° C./5% CO2, the cell culture medium was collected and assayed for human IL-6 levels using the human IL-6 duo-set ELISA kit (R&D Systems). The average results for each test compound (n=3) were expressed as a percent (%) of the average control value. The average values across the concentrations tested were then plotted and the IC50 for the inhibition of IL-6 was calculated by fitting the data to a 4-parameter IC50 equation using GraphPad Prism software for Windows (Graph Pad Software, San Diego Calif. USA) or Grafit version 5 (Erithacus Software). Each experiment was repeated twice and the data are presented as the mean IC50 from both experiments.

The subject of the next experiment is J774 macrophages. The experiment is described as follows: Resazurin Macrophage J774 Viability Assay. Format: cell-based. The note with it: Mus musculus. The protocol:
Potency was assessed using a viability assay based on the survival of the J774 macrophage cell line. Macrophages are closely related to osteoclasts and have been used previously as a model system for osteoclast survival (see, e.g., Luckman et al., 1998, “Heterocycle-containing bisphosphonates cause apoptosis and inhibit bone resorption by preventing protein prenylation: evidence from structure-activity relationships in J774 macrophages,” J. Bone Miner. Res., Vol. 13, pp. 1668-1678). The model is indicative both of effects on bone protection in diseases such as osteoporosis, osteoarthritis and rheumatoid arthritis, and of effects on inflammation since, like osteoclasts, J774 macrophages are dependent for survival on continued NFκB activation.
In vitro potency of test compounds was determined by incubation with J774 macrophages and subsequent determination of cell viability using resazurin.
Resazurin is a redox dye commonly used as an indicator of viability in cultured cells (see, e.g., Anoopkumar-Dukie, 2005, “Resazurin assay of radiation response in cultured cells”, British Journal of Radiology, Vol. 78, pp. 945-947). It is non-toxic to cells and stable in culture medium, allowing continuous measurement of cell proliferation in vitro as either a kinetic or endpoint assay. The assay is based on the ability of viable, metabolically-active cells to reduce resazurin (which is blue and non-fluorescent) to resorufin and dihydroresorufin (which are red and fluorescent) using electrons from reducing species, such as nicotinamide […] and flavin adenine dinucleotide (FADH). This transformation, from oxidised form to reduced form, can be measured either colorimetrically or fluorometrically. Insults that impair cell viability and proliferation also affects the capacity of cells to reduce resazurin, and the rate of dye reduction is directly proportional to the number of viable cells present.
For fluorescence measurements, 530-560 nm excitation and 590 nm emission wavelengths are typically used. For colorimetric measurements, absorbance at 570 nm (reduced form) and 600 nm (oxidised form) is typically measured. A simple calculation is performed to determine the relative quantities of the two species: a high ratio of resorufin (the reduced form) to resazurin (the oxidised form) is an indicator that cells are proliferating and viable. A low ratio indicates cells that are quiescent or non-viable.
J774 cells were plated at 10^4 cells per well in 100 μL αMEM (α Modified Eagle Medium) in 96-well plates and allowed to adhere overnight. The following day, test compounds were prepared as 100 mM solutions in DMSO. These stock solutions were diluted in DMSO and then diluted 1000× in culture medium (αMEM) before being added directly to the wells so as to give the desired final compound concentration. After a 72 hour incubation at 37° C./5% CO2, resazurin (Alamar Blue, Biosource International) was added to each well (1:10 v/v, 10 μL). The plate was then incubated at 37° C. for 3 hours and fluorescence was measured at 590 nm, with a 25 nm bandwidth.
The average results for each test compound were expressed as a percent (%) of the average control value reflecting cell viability. The average values across the concentrations tested were then plotted and an IC50 was calculated by fitting the data to a 4-parameter IC50 equation using either Graph Pad Prism software for Windows (Graph Pad Software, San Diego Calif. USA) or Grafit version 5 (Erithacus Software). Each experiment was repeated twice and the data are presented as the mean IC50 from both experiments.
On the technique in general: The colour change of resazurin is a common sign of viable cells or microbes.

Setting [2] is: footnote (1): Thp1 cells plated at 3 × 10^5 cells/well, Grafit.
Where [3] appears, read: footnote (2): Thp1 cells plated at 1.7 × 10^5 cells/well, GraphPad Prism.
Where [4] appears, read: J774, 72 h, footnote (1): 10 point range 30 μM to 1.5 nM, n = 3 per concentration, Grafit, 72 hour incubation.
Where [5] appears, read: J774, footnote (2): 12 point range 10 μM to 0.5 nM, n = 4 per concentration, GraphPad Prism, average of original and new experiments where replicates increased.

In the case of `C[C@]1(O)CC[C@H](NS(=O)(=O)c2ccc(-c3ccc(F)cc3F)cc2)CC1` [ABD900], the IC50 in experiment [1] (setting [2]) worked out at 0.09 µM; in experiment [1] (setting [3]) it was 0.11 µM; with J774 macrophages (setting [4]) it was 3.64 µM; in the experiment with J774 macrophages (setting [5]), 2.91 µM.
As for `C[C@]1(O)CC[C@H](NS(=O)(=O)c2ccc(-c3ccc(Cl)cc3C#N)c(F)c2)CC1` [HMC-C-08-A, 4′-Chloro-2′-cyano-2-fluoro-N-((1r,4r)-4-hydroxy-4-methylcyclohexyl)-[1,1′-biphenyl]-4-sulfonamide], the IC50 in experiment [1] (setting [3]) turned out to be 0.16 µM; in the experiment on J774 macrophages (setting [5]), 1.25 µM.
Compound `C[C@]1(O)CC[C@H](NS(=O)(=O)c2ccc(-c3ccc(C#N)cc3)c(F)c2)CC1` [HMC-C-07-A, 4′-Cyano-2-fluoro-N-((1r,4r)-4-hydroxy-4-methylcyclohexyl)-[1,1′-biphenyl]-4-sulfonamide] gave an IC50 in the experiment on J774 macrophages (setting [5]) of 1.66 µM.
As to `O=S(=O)(N[C@H]1CC[C@H](O)CC1)c1ccc(-c2ccc(F)cc2F)cc1` [ABD599, reference compound], the IC50 turned out to be 0.07 µM in experiment [1] (setting [2]), 0.19 µM in experiment [1] (setting [3]) and 0.41 µM in the experiment with J774 macrophages (setting [4]).
Turning to `C[C@]1(O)CC[C@@H](NS(=O)(=O)c2ccc(-c3ccc(F)cc3F)cc2)CC1` [ABD899, reference compound], the IC50 amounted to 0.03 µM in experiment [1] (setting [2]), 0.04 µM in experiment [1] (setting [3]), 0.27 µM in the experiment with J774 macrophages (setting [4]) and 0.21 µM with J774 macrophages (setting [5]).
For the compound `C[C@]1(O)CC[C@@H](NS(=O)(=O)c2ccc(-c3ccc(C#N)cc3)c(F)c2)CC1` [HMC-C-07-B, 4′-Cyano-2-fluoro-N-((1s,4s)-4-hydroxy-4-methylcyclohexyl)-[1,1′-biphenyl]-4-sulfonamide], the IC50 was determined as 0.018 µM in experiment [1] (setting [3]); 0.09 µM in the experiment with J774 macrophages (J774, first column (original replicates, n = 2), footnote (2): 12 point range 10 μM to 0.5 nM, GraphPad Prism); 0.096 µM in the experiment on J774 macrophages (setting [5]).
Regarding `C[C@]1(O)CC[C@@H](NS(=O)(=O)c2ccc(-c3cc(F)c(F)cc3F)cc2)CC1` [HMC-C-10-B, 2′,4′,5′-Trifluoro-N-((1s,4s)-4-hydroxy-4-methylcyclohexyl)-[1,1′-biphenyl]-4-sulfonamide], the results for the IC50 (in experiment [1] (setting [3]); with J774 macrophages (setting [5])) were 0.55 µM and 0.54 µM, respectively.
For `C[C@]1(O)CC[C@H](NS(=O)(=O)c2ccc(-c3ncc(Cl)cc3C#N)cc2)CC1` [HMC-N-05-A, 4-(5-Chloro-3-cyanopyridin-2-yl)-N-((1r,4r)-4-hydroxy-4-methylcyclohexyl)benzenesulfonamide], in that order: 0.3 µM and 1.82 µM.
As to `C[C@]1(O)CC[C@H](NS(=O)(=O)c2ccc(-c3ccc(C#N)cc3Cl)cc2)CC1` [HMC-C-09-A, 2′-Chloro-4′-cyano-N-((1r,4r)-4-hydroxy-4-methylcyclohexyl)-[1,1′-biphenyl]-4-sulfonamide], the 50% inhibitory concentration (IC50) in experiment [1] (setting [3]) amounted to 0.17 µM; with J774 macrophages (setting [5]), 0.69 µM.
Take `Cc1cc(S(=O)(=O)N[C@H]2CC[C@H](O)CC2)ccc1-c1ccc(F)cc1F` [ABD735, reference compound]: the IC50 with J774 macrophages (setting [4]) was found to be 0.07 µM; with J774 macrophages (setting [5]), 0.11 µM.
On to `C[C@]1(O)CC[C@H](NS(=O)(=O)c2ccc(-c3ccc(Cl)cc3C#N)c(Cl)c2)CC1` [HMC-C-11-A, 2,4′-Dichloro-2′-cyano-N-((1r,4r)-4-hydroxy-4-methylcyclohexyl)-[1,1′-biphenyl]-4-sulfonamide], for which the half-maximal inhibitory concentration (IC50) was found to be 0.26 µM in experiment [1] (setting [3]) and 1.46 µM in the experiment with J774 macrophages (setting [5]).
